This is an account of results in ChEMBL document CHEMBL1201862, “PubChem BioAssay data set” (2004).

Among the test systems are SW-620; A549; SK-OV-3; SK-MEL-28; MCF7; KM12; Hs-578T; A498; NCI-H522; MDA-N; NCI/ADR-RES; ACHN; EKVX; UO-31; SK-MEL-2; SF-268; M14; HOP-62; NCI-H460; UACC-257.
Holding throughout (test): NCI-60 cell line screen, 48 h

Molecules are shown by their SMILES.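 Growth conditions: 96-well plates. Treatment: test compound, 48 hours, 5 concentrations. Analysis: linear interpolation between bracketing concentrations; unreached endpoints set to highest concentration. Abbreviation: GI50, concentration required for 50% inhibition of growth.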 The source made the active and inactive calls. Rule as the data show it: active = GI50 up to about 1.1 µM and inactive = higher.

Turning to `COc1ccccc1NC(=S)N/N=C1\C(=O)Nc2ccccc21`, the GI50 in the assay on SW-620 is > 100 µM (inactive); in the assay on A549, > 100 µM (inactive); in the assay with SK-OV-3, > 100 µM (inactive); with SK-MEL-28 it was 3.29 µM (inactive); in the assay with MCF7, 42.6 µM (inactive); in the assay on KM12, > 100 µM (inactive). The GI50 with Hs-578T, in the assay on A498, in the assay on NCI-H522, in the assay on MDA-N, in the assay on NCI/ADR-RES and in the assay with ACHN was > 100 µM (inactive) in each case. Also, the GI50 was 86.3 µM (inactive) in the assay with EKVX; > 100 µM (inactive) with UO-31; > 100 µM (inactive) with SK-MEL-2; 0.583 µM (active) with SF-268; > 100 µM (inactive) in the assay on M14; > 100 µM (inactive) with HOP-62. The GI50 in the assay on NCI-H460 and in the assay with UACC-257 was > 100 µM (inactive) throughout.
For `C=C1c2[nH]c3ccccc3c2C2C(CC)C1CCN2C` (stereo not given), the GI50 with SW-620 is > 100 µM (inactive); in the assay on A549 it was > 100 µM (inactive); with SK-OV-3, > 100 µM (inactive); with SK-MEL-28, 29.5 µM (inactive); in the assay with MCF7 it was 56.1 µM (inactive); in the assay on KM12 it was > 100 µM (inactive). In addition, the GI50 is 40.9 µM (inactive) in the assay with Hs-578T; 18.9 µM (inactive) with A498; 63.2 µM (inactive) in the assay with NCI-H522; 72.8 µM (inactive) with MDA-N; 42.2 µM (inactive) in the assay on NCI/ADR-RES; > 100 µM (inactive) with ACHN. Moreover, the GI50 with EKVX is 28.4 µM (inactive); in the assay with UO-31, > 100 µM (inactive); in the assay with SK-MEL-2, > 100 µM (inactive); in the assay on SF-268 it was > 100 µM (inactive); in the assay with M14 it was 19.3 µM (inactive); in the assay on HOP-62 it was > 100 µM (inactive). Besides, the GI50 in the assay with NCI-H460 is 82 µM (inactive); in the assay with UACC-257, 26 µM (inactive).
Take `COc1cc2c(cc1-c1coc3cc(O)ccc3c1=O)OCO2` [CUNEATIN]: the GI50 with SW-620 is 32.8 µM (inactive); in the assay on A549 it was 30.3 µM (inactive); in the assay with SK-OV-3, 19.9 µM (inactive); in the assay with SK-MEL-28, 45.8 µM (inactive); with MCF7, 35.3 µM (inactive); in the assay with KM12, 33.3 µM (inactive). Moreover, the GI50 was 22.2 µM (inactive) with Hs-578T; 31 µM (inactive) with A498; 16.4 µM (inactive) in the assay with NCI-H522; 48.9 µM (inactive) in the assay on MDA-N; 21.8 µM (inactive) in the assay with NCI/ADR-RES; 20.1 µM (inactive) with ACHN. Moreover, the GI50 with EKVX was 34.4 µM (inactive); with UO-31, 22.1 µM (inactive); in the assay with SK-MEL-2, 37 µM (inactive); in the assay on SF-268, 19.3 µM (inactive); in the assay on M14, 71 µM (inactive); in the assay with HOP-62 it was 16.4 µM (inactive). For the same molecule, the GI50 is 18.1 µM (inactive) with NCI-H460 and 26 µM (inactive) in the assay on UACC-257.
Regarding `C/C(Cl)=N/OC(=O)Nc1ccc(F)c([N+](=O)[O-])c1`, the GI50 is 3.71 µM (inactive) in the assay on SW-620; 26.2 µM (inactive) in the assay on A549; 20.9 µM (inactive) in the assay on SK-OV-3; 17.6 µM (inactive) in the assay with SK-MEL-28; 15.2 µM (inactive) in the assay on MCF7; 17.1 µM (inactive) with KM12. For the same molecule, the GI50 is 0.457 µM (active) in the assay with Hs-578T; 19.5 µM (inactive) in the assay with A498; 1.81 µM (inactive) with NCI-H522; 16 µM (inactive) with MDA-N; 30.3 µM (inactive) with NCI/ADR-RES; 3.02 µM (inactive) in the assay with ACHN. The GI50 is 16.3 µM (inactive) in the assay with EKVX; 8.05 µM (inactive) with UO-31; 17.6 µM (inactive) in the assay on SK-MEL-2; 15.4 µM (inactive) with SF-268; 19.2 µM (inactive) with M14; 18.2 µM (inactive) in the assay with HOP-62. In addition, the GI50 in the assay with NCI-H460 is 4.75 µM (inactive); in the assay on UACC-257, 20.7 µM (inactive).
